Patent US20150105252A1, “SUBSTITUTED PYRAZOLES AS HERBICIDES” (E I DU PONT DE NEMOURS AND COMPANY, priority 2013, published 2015)

Legend:
corn [1] = experiment: Test C preemergence; assay type: in vivo, Zea mays; conditions: for Corn plant response rating / Plant response rating, Corn: preemergence; for Plant response rating, Corn: 125 g ai/ha, scale 0 to 100, 0 = no effect, 100 = complete control
Method in brief: (§1)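 Scores of 0 (no effect) to 100 (complete control) were assigned by eye after 13–15 days, comparing treated pots with controls. Soil-applied (preemergence) treatments went onto seeds in loam and sand; foliar (postemergence) treatments onto 1- to 4-leaf plants in peat medium.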

waterhemp = experiment: Test C preemergence; assay type: in vivo, Amaranthus rudis; conditions: for Waterhemp plant response rating / Plant response rating, Waterhemp: preemergence; for Plant response rating, Waterhemp: 125 g ai/ha, scale 0 to 100, 0 = no effect, 100 = complete control
Method in brief: as §1

galium [2] = experiment: Test C postemergence; assay type: in vivo, Galium aparine; conditions: for Plant response rating (scale of 0 to 100 where 0 is no effect and 100 is complete control), Galium: Postemergence, 31 g ai/ha, visually evaluated after 13 to 15 days; for Galium plant response rating / Plant response rating, Galium: postemergence; for Galium plant response rating: 62 g ai/ha, scale 0 to 100
Method in brief: as §1

blackgrass = experiment: Test C postemergence; assay type: in vivo, Alopecurus myosuroides; conditions: for Plant response rating (scale of 0 to 100 where 0 is no effect and 100 is complete control), Blackgrass: Postemergence, 31 g ai/ha, visually evaluated after 13 to 15 days; for Blackgrass plant response rating / Plant response rating, Blackgrass: postemergence; for Blackgrass plant response rating: 62 g ai/ha, scale 0 to 100
Method in brief: as §1

nutsedge, yellow = experiment: Test C preemergence; assay type: in vivo, Cyperus esculentus; conditions: for Nutsedge, Yellow plant response rating / Plant response rating, Nutsedge, Yellow: preemergence; for Plant response rating, Nutsedge, Yellow: 125 g ai/ha, scale 0 to 100, 0 = no effect, 100 = complete control
Method in brief: as §1

galium [3] = experiment: Test C preemergence; assay type: in vivo, Galium aparine; conditions: for Galium plant response rating / Plant response rating, Galium: preemergence; for Plant response rating, Galium: 125 g ai/ha, scale 0 to 100, 0 = no effect, 100 = complete control
Method in brief: as §1

barnyardgrass = experiment: Test C postemergence; assay type: in vivo, Echinochloa crus-galli; conditions: for Plant response rating (scale of 0 to 100 where 0 is no effect and 100 is complete control), Barnyardgrass: Postemergence, 31 g ai/ha, visually evaluated after 13 to 15 days; for Barnyardgrass plant response rating / Plant response rating, Barnyardgrass: postemergence; for Barnyardgrass plant response rating: 62 g ai/ha, scale 0 to 100
Method in brief: as §1

foxtail, giant [4] = experiment: Test C postemergence; assay type: in vivo, Setaria faberii; conditions: for Plant response rating (scale of 0 to 100 where 0 is no effect and 100 is complete control), Foxtail, Giant: Postemergence, 31 g ai/ha, visually evaluated after 13 to 15 days; for Foxtail, Giant plant response rating / Plant response rating, Foxtail, Giant: postemergence; for Foxtail, Giant plant response rating: 62 g ai/ha, scale 0 to 100
Method in brief: as §1

ryegrass, Italian = experiment: Test C preemergence; assay type: in vivo, Lolium multiflorum; conditions: for Ryegrass, Italian plant response rating / Plant response rating, Ryegrass, Italian: preemergence; for Plant response rating, Ryegrass, Italian: 125 g ai/ha, scale 0 to 100, 0 = no effect, 100 = complete control
Method in brief: as §1

corn [5] = experiment: Test A postemergence; assay type: in vivo, Zea mays
Method in brief: (§2)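 Both timings tested concurrently in loam/sand soil: preemergence by directed soil spray, postemergence on plants of 2–10 cm at the one- to two-leaf stage. Greenhouse holding period was approximately 10 days before visual injury assessment (0–100, 0 = no effect).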

foxtail, giant [6] = experiment: Test A postemergence; assay type: in vivo, Setaria faberii
Method in brief: as §2

morningglory = experiment: Test C postemergence; assay type: in vivo, Ipomoea coccinea; conditions: for Plant response rating (scale of 0 to 100 where 0 is no effect and 100 is complete control), Morningglory: Postemergence, 31 g ai/ha, visually evaluated after 13 to 15 days; for Morningglory plant response rating / Plant response rating, Morningglory: postemergence; for Morningglory plant response rating: 62 g ai/ha, scale 0 to 100
Method in brief: as §1

[7] = 31 g ai/ha, visual rating, scale 0 to 100 (0 no effect, 100 complete control), 13 to 15 days
[8] = 62 g ai/ha, scale 0 to 100 (0 no effect, 100 complete control), 13 to 15 days
[9] = 250 g ai/ha, scale 0 to 100, 0 is no effect, 100 is complete control
[10] = 250 g ai/ha, scale 0 to 100 (0 no effect, 100 complete control)
[11] = 125 g ai/ha, scale 0 to 100, 0 no effect, 100 complete control
[12] = Postemergence, 500 g ai/ha, 0 to 100 scale (0 no effect, 100 complete control)
[13] = postemergence, 125 g ai/ha, about 10 days, visual rating on 0 to 100 scale (0 no effect, 100 complete control)

SMILES: CCCc1cc(C(=O)NC2CC2)nn1Cc1ccnc(OC(F)F)c1 [Compound 205]
- Corn plant response rating (corn [1]; [7]): 70
- Corn plant response rating (corn [1]; [8]): 70
- Plant response rating, Corn (corn [1]; 13 to 15 days): 80
- Corn plant response rating (corn [1]; [9]): 98
- Waterhemp plant response rating (waterhemp; [7]): 100
- Waterhemp plant response rating (waterhemp; [8]): 100
- Plant response rating, Waterhemp (waterhemp; 13 to 15 days): 100
- Waterhemp plant response rating (waterhemp; [9]): 100
- Plant response rating (scale of 0 to 100 where 0 is no effect and 100 is complete control), Galium (galium [2]): 65
- Galium plant response rating (galium [2]): 80
- Plant response rating, Galium (galium [2]; [10]): 80
- Plant response rating, Galium (galium [2]; [11]): 80
- Plant response rating (scale of 0 to 100 where 0 is no effect and 100 is complete control), Blackgrass (blackgrass): 5
- Blackgrass plant response rating (blackgrass): 5
- Plant response rating, Blackgrass (blackgrass; [10]): 30
- Plant response rating, Blackgrass (blackgrass; [11]): 5
- Nutsedge, Yellow plant response rating (nutsedge, yellow; [7]): 40
- Nutsedge, Yellow plant response rating (nutsedge, yellow; [8]): 65
- Plant response rating, Nutsedge, Yellow (nutsedge, yellow; 13 to 15 days): 75
- Nutsedge, Yellow plant response rating (nutsedge, yellow; [9]): 90
- Galium plant response rating (galium [3]; [7]): 100
- Galium plant response rating (galium [3]; [8]): 90
- Plant response rating, Galium (galium [3]; 13 to 15 days): 95
- Galium plant response rating (galium [3]; [9]): 100
- Plant response rating (scale of 0 to 100 where 0 is no effect and 100 is complete control), Barnyardgrass (barnyardgrass): 10
- Barnyardgrass plant response rating (barnyardgrass): 10
- Plant response rating, Barnyardgrass (barnyardgrass; [10]): 50
- Plant response rating, Barnyardgrass (barnyardgrass; [11]): 15
- Plant response rating (scale of 0 to 100 where 0 is no effect and 100 is complete control), Foxtail, Giant (foxtail, giant [4]): 20
- Foxtail, Giant plant response rating (foxtail, giant [4]): 35
- Plant response rating, Foxtail, Giant (foxtail, giant [4]; [10]): 65
- Plant response rating, Foxtail, Giant (foxtail, giant [4]; [11]): 70
- Ryegrass, Italian plant response rating (ryegrass, Italian; [7]): 60
- Ryegrass, Italian plant response rating (ryegrass, Italian; [8]): 70
- Plant response rating, Ryegrass, Italian (ryegrass, Italian; 13 to 15 days): 90
- Ryegrass, Italian plant response rating (ryegrass, Italian; [9]): 95
- Corn plant response rating (corn [5]; [12]): 100
- Corn plant response rating (corn [5]; [13]): 70
- Foxtail, Giant plant response rating (foxtail, giant [6]; [12]): 90
- Foxtail, Giant plant response rating (foxtail, giant [6]; [13]): 90
- Plant response rating (scale of 0 to 100 where 0 is no effect and 100 is complete control), Morningglory (morningglory): 65
- Morningglory plant response rating (morningglory): 70
- Plant response rating, Morningglory (morningglory; [10]): 95
- Plant response rating, Morningglory (morningglory; [11]): 80

SMILES: CCCc1cc(C(=O)NCC(F)(F)F)nn1Cc1ccnc(OC(F)F)c1 [Compound 127]
- Plant response rating (scale of 0 to 100), Corn (corn [1]; Preemergence, 250 g ai/ha): 45
- Corn plant response rating (corn [1]; [7]): 5
- Corn plant response rating (corn [1]; [8]): 25
- Plant response rating, Corn (corn [1]; 13 to 15 days): 65
- Plant response rating (scale of 0 to 100), Waterhemp (waterhemp; Preemergence, 250 g ai/ha): 100
- Waterhemp plant response rating (waterhemp; [7]): 100
- Waterhemp plant response rating (waterhemp; [8]): 100
- Plant response rating, Waterhemp (waterhemp; 13 to 15 days): 100
- Plant response rating (scale of 0 to 100 where 0 is no effect and 100 is complete control), Galium (galium [2]): 70
- Galium plant response rating (galium [2]): 70
- Plant response rating, Galium (galium [2]; [10]): 80
- Plant response rating, Galium (galium [2]; [11]): 70
- Plant response rating (scale of 0 to 100 where 0 is no effect and 100 is complete control), Blackgrass (blackgrass): 20
- Blackgrass plant response rating (blackgrass): 15
- Plant response rating, Blackgrass (blackgrass; [10]): 40
- Plant response rating, Blackgrass (blackgrass; [11]): 10
- Plant response rating (scale of 0 to 100), Nutsedge, Yellow (nutsedge, yellow; Preemergence, 250 g ai/ha): 85
- Nutsedge, Yellow plant response rating (nutsedge, yellow; [7]): 25
- Nutsedge, Yellow plant response rating (nutsedge, yellow; [8]): 50
- Plant response rating, Nutsedge, Yellow (nutsedge, yellow; 13 to 15 days): 70
- Plant response rating (scale of 0 to 100), Galium (galium [3]; Preemergence, 250 g ai/ha): 100
- Galium plant response rating (galium [3]; [7]): 80
- Galium plant response rating (galium [3]; [8]): 100
- Plant response rating, Galium (galium [3]; 13 to 15 days): 100
- Plant response rating (scale of 0 to 100 where 0 is no effect and 100 is complete control), Barnyardgrass (barnyardgrass): 5
- Barnyardgrass plant response rating (barnyardgrass): 5
- Plant response rating, Barnyardgrass (barnyardgrass; [10]): 15
- Plant response rating, Barnyardgrass (barnyardgrass; [11]): 10
- Plant response rating (scale of 0 to 100 where 0 is no effect and 100 is complete control), Foxtail, Giant (foxtail, giant [4]): 10
- Foxtail, Giant plant response rating (foxtail, giant [4]): 15
- Plant response rating, Foxtail, Giant (foxtail, giant [4]; [10]): 35
- Plant response rating, Foxtail, Giant (foxtail, giant [4]; [11]): 15
- Plant response rating (scale of 0 to 100), Ryegrass, Italian (ryegrass, Italian; Preemergence, 250 g ai/ha): 80
- Ryegrass, Italian plant response rating (ryegrass, Italian; [7]): 25
- Ryegrass, Italian plant response rating (ryegrass, Italian; [8]): 60
- Plant response rating, Ryegrass, Italian (ryegrass, Italian; 13 to 15 days): 80
- Corn plant response rating (corn [5]; [12]): 90
- Corn plant response rating (corn [5]; [13]): 90
- Foxtail, Giant plant response rating (foxtail, giant [6]; [12]): 90
- Foxtail, Giant plant response rating (foxtail, giant [6]; [13]): 90
- Plant response rating (scale of 0 to 100 where 0 is no effect and 100 is complete control), Morningglory (morningglory): 65
- Morningglory plant response rating (morningglory): 70
- Plant response rating, Morningglory (morningglory; [10]): 85
- Plant response rating, Morningglory (morningglory; [11]): 60
